Results on 19 compounds are retold here after BindingDB's records for doi:10.3109/14756360902888184 (Dublin City University, 2010).

Residues, ends and D or L forms follow the SMILES beside them. *: point of attachment. Bz = O=C(c1ccccc1)*

The target in this test is T1, Secreted cathepsin L 1 (Fasciola hepatica, UniProt Q7JNQ9).
T1 sequence (Q7JNQ9 whole entry): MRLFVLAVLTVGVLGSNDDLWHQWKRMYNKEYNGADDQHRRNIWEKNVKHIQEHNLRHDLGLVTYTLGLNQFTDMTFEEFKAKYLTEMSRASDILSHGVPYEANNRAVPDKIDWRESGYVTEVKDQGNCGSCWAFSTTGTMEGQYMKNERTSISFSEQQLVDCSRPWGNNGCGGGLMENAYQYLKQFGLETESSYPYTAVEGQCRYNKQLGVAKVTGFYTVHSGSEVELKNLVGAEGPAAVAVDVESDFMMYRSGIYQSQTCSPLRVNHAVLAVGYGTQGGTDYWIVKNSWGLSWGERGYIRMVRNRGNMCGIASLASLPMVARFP
The test can be described thus: Cathepsin L Enzyme Assay. The method, then:
The protease was activated by the addition of dithiothreitol, ethylenediaminetetraacetic acid (EDTA), and sodium acetate followed by incubation at 37°C for 2 h. Proteinase activity was measured fluorometrically using Z-Phe-Arg-NHMec as substrate. The substrate was stored as a 1 mM stock solution in dimethyl sulfoxide (DMSO). Assays were carried out using a final concentration of 10 μM substrate in 0.1 M sodium acetate containing 0.1 M dithiothreitol and […]. The enzyme and inhibitor were incubated together for 15 min at 37°C, at which stage the substrate was added. The mixture was incubated at 37°C for 30 min. The reaction was stopped by the addition of 150 μL of a 10% acetic acid solution. The amount of 7-amino-4-methylcoumarin (-NHMec) released was measured using a PerkinElmer fluorescence spectrophotometer with excitation set at 370 nm and emission at 440 nm.
One may read the IC50 as the concentration at which inhibition is half-maximal. As for `CC(C)C[C@H](NC(=O)c1c(F)c(F)c(F)c(F)c1F)C(=O)NCC#N` [N-2,3,4,5,6-pentafluorobenzoyl-L-leucine-glycine nitrile (33)], half-maximal inhibition (IC50) was put at 4.4 µM.

In the case of `CC(C)C[C@H](NC(=O)c1cc(F)c(F)c(F)c1F)C(=O)NCC#N` [N-2,3,4,5-tetrafluorobenzoyl-L-leucine-glycine nitrile (32)], 3.4 µM corresponded to half-maximal inhibition (IC50).

In turn, `CC(C)C[C@H](NC(=O)c1ccc(F)c(F)c1F)C(=O)NCC#N` [N-2,3,4-trifluorobenzoyl-L-leucine-glycine nitrile (29)] yielded an IC50 of 4.1 µM.

In the case of `CC(C)C[C@H](NC(=O)c1c(F)ccc(F)c1F)C(=O)NCC#N` [N-2,3,6-trifluorobenzoyl-L-leucine-glycine nitrile (28)], the IC50 came out at 6 µM.

The compound `CC(C)C[C@H](NC(=O)c1cc(F)c(F)cc1F)C(=O)NCC#N` [N-2,4,5-trifluorobenzoyl-L-leucine-glycine nitrile] gave a half-maximal inhibitory concentration (IC50) of 4.5 µM.

With `CC(C)C[C@H](NC(=O)c1ccc(F)cc1F)C(=O)NCC#N` [N-2,4-difluorobenzoyl-L-leucine-glycine nitrile (23)], inhibition was half-maximal at 5.5 µM (IC50).

As for `CC(C)C[C@H](NC(=O)c1cc(F)ccc1F)C(=O)NCC#N` [N-2,5-difluorobenzoyl-L-leucine-glycine nitrile (24)], the IC50 was 3.1 µM.

Regarding `CC(C)C[C@H](NC(=O)c1c(F)cccc1F)C(=O)NCC#N` [N-2,6-difluorobenzoyl-L-leucine-glycine nitrile (25)], 3.7 µM corresponded to half-maximal inhibition (IC50).

In turn, `C[C@H](NC(=O)c1ccccc1F)C(=O)NCC#N` [N-2-fluorobenzoyl-L-alanine-glycine nitrile (15)] came in with an IC50 of 87.6 µM.

With `C[C@H](NC(=O)c1ccccc1F)C(=O)NCCC#N` [N-2-fluorobenzoyl-L-alanine-β-alanine nitrile (19)], the concentration for half-maximal inhibition (IC50) was over 100 µM.

In turn, `CC(C)C[C@H](NC(=O)c1ccccc1C(F)(F)F)C(=O)NCC#N` [N-2-trifluoromethylbenzoyl-L-leucine-glycine nitrile (34)] came in with a concentration for half-maximal inhibition (IC50) of 4.1 µM.

In the case of `CC(C)C[C@H](NC(=O)c1cc(F)c(F)c(F)c1)C(=O)NCC#N` [N-3,4,5-trifluorobenzoyl-L-leucine-glycine nitrile], 3.4 µM corresponded to half-maximal inhibition (IC50).

As to `CC(C)C[C@H](NC(=O)c1ccc(F)c(F)c1)C(=O)NCC#N` [N-3,4-difluorobenzoyl-L-leucine-glycine nitrile (26)], the midpoint of inhibition, the IC50, lay at 3.1 µM.

For `CC(C)C[C@H](NC(=O)c1cc(F)cc(F)c1)C(=O)NCC#N` [N-3,5-difluorobenzoyl-L-leucine-glycine nitrile (27)], inhibition was half-maximal at 3 µM (IC50).

The compound `CC(C)C[C@H](NC(=O)c1cccc(C(F)(F)F)c1)C(=O)NCC#N` [N-3-trifluoromethylbenzoyl-L-leucine-glycine nitrile (35)] had a half-inhibitory concentration (IC50) of 9.1 µM.

The compound `CC(C)C[C@H](NC(=O)c1ccc(C(F)(F)F)cc1)C(=O)NCC#N` [N-4-trifluoromethylbenzoyl-L-leucine-glycine nitrile (36)] showed a 50% inhibitory concentration (IC50) of 3.2 µM.

The compound `CC(C)C[C@H](NC(=O)c1ccccc1)C(=O)NCC(=O)O` [N-benzoyl-L-leucine-glycine (37)] (Bz-Leu-Gly-OH) displayed an IC50 of 10 µM.

Turning to `C[C@H](NC(=O)c1c(F)c(F)c(F)c(F)c1F)C(=O)NCC#N` [N-pentafluorobenzoyl-L-alanine-glycine nitrile (16)], the half-inhibitory concentration (IC50) was determined as 68.3 µM.

As to `C[C@H](NC(=O)c1c(F)c(F)c(F)c(F)c1F)C(=O)NCCC#N` [N-pentafluorobenzoyl-L-alanine-β-alanine nitrile (20)], the IC50 is over 100 µM.
